“Also recorded” adds a separate entry of the source.
Assays:
5-HT2A receptor = 5-HT2A receptor (Rattus norvegicus, UniProt P14842); assay: Dose finding: behavioral syndrome, wet dog shakes (WDS) and back muscle contractions (BMC); details: rats
Description: The total number (N) of wet dog shakes (WDS) and back muscle contractions (BMC) is plotted against dose (mg/kg).
Psilocybin was tested at a dose range of 0.03-10.0 mg/kg administered sub-cutaneously (S.C.) Behavioral syndrome including wet dog shakes (WDS) and back muscle contractions (BMC) are characteristic of 5-HT2A receptor activity and potentially indicative of psychomotor signs. […] There is a parallel between behaviors such as WDS in rats and hallucination in humans (Behavioral Neurobiology of Psychedelic Drugs, Halberstadt, Adam, Vollenweider, Franz X., Nichols, David E. (Eds.), Springer, 2018, p 161).

rats = assay: Dose finding: locomotor activity (distance travelled); assay type: in vivo
Description: Stimulant drugs cause far larger increases in distance travelled with escalating doses, reflective of a direct motor stimulant property not seen with psilocybin.

Long Evans rats [1] = assay: Progressive ratio (PR) test of motivation; assay type: in vivo
Description: High responders are defined as rats completing the highest tertile of lever presses in the baseline test; low responders are rats completing the bottom tertile of lever presses in the baseline test. Asterisk (*) indicates statistical significance between high and low responders.
(§1) Experiments were conducted to test psilocybin doses in the range of 0.05-0.2 mg/kg psilocybin administered S.C. across progressive ratio (PR) and 5-choice serial reaction time task (5CSRTT) to examine the effect of psilocybin on endophenotypes of motivation and attention. In each study, a population of out-bred Long Evans rats was first tested as a group for response to the PR and 5CSRTT. Each group was then divided into sub-groups by tertiles according to performance, and then exposed to various dose levels immediately prior to re-testing at various psilocybin dose levels.
The PR test is used to answer how willing the test subject is to work for food (i.e. test of motivation). A single 45 mg food pellet (i.e. reinforcer) is made available to the test animal based on lever press response. To obtain each successive pellet, the animal must make increasingly more lever presses. Typically, a progression of 2, 4, 6, 9, 12, 15, 20, 25, 32, 40, 50, 62, 77, 95, 118, etc. is used, derived from the equation: […]
At some point, the animal gives up as the motor demands to obtain a single pellet are not deemed worthwhile (i.e. animal reaches “break point” defined as animal's failure to earn a food pellet in 20 minutes).
Psilocybin was administered to rats S.C. at doses of 0.05, 0.1 and 0.2 mg/kg.
Rats were then sub-grouped into tertiles based on the number of lever presses for food at baseline, so that within the test population of 36 animals, 12 animals were identified as low responders, characterized by low motivation and potentially corresponding to low motivation endophenotype representative of clinical depression. Twelve animals were identified as high responders. There was a statistically significant difference between the high and low responders. […] This represents a motivational enhancing effect of psilocybin in the cohort corresponding to a low motivation endophenotype representative of clinical depression.

Long Evans rats [2] = assay: 5-choice serial reaction time task (5CSRTT), standard conditions, 5 s ITI; assay type: in vivo
Description: Asterisk (*) indicates statistical difference vs. vehicle. […] High performers are defined as rats completing the highest tertile of Hits or Correct nose-pokes in the baseline test; low performers are rats completing the bottom tertile of Hits or Correct nose-pokes in the baseline test.
Asterisk (*) indicates statistical significance vs. vehicle.
as §1
The 5CSRTT involves evaluating test subject response to a brief visual stimulus (Higgins, Guy & Silenieks, Leonardo. (2017). Rodent Test of Attention and Impulsivity: The 5-Choice Serial Reaction Time Task: The 5-Choice Serial Reaction Time Task. 10.1002/cpph.27). Animals are trained to make a nose-poke response to a stimulus location in order to collect a food reward. The task allows the experimenter to measure animal performance in multiple domains including: • Attention • Impulsivity • Perseveration • Speed of response
A strength of the test is its flexible configuration to challenge test subjects: • Standard test conditions (0.75 s stimulus duration (SD), 5 s inter-trial interval (ITI), 100 trials) • Multiple short stimulus duration (mSD) (0.03-1 s SD) • Fixed long ITI (5 s vs. 10 s ITI) • Multiple ultrashort ITI (2-5 s ITI) • Extended 250 trials
Asterisk (*) indicates statistical significance vs. vehicle. (FIG. 3A).
When this population is segmented into tertiles according to performance based on accuracy (% correct, calculated as #correct/(#correct+ #incorrect)*100), the lowest performing tertile (N=8) are considered to be low attentive and potentially representative of a low attentive endophenotype of depression (FIG. 6A). Low attentive rats also score poorly on % hit (FIG. 6B) and have a slower response speed (FIG. 6D). […] Asterisk (*) indicates statistical significance vs. vehicle.

Long Evans rats [3] = assay: 5CSRTT with 10 s ITI, premature (PREM) and perseverative (PSV) responses; assay type: in vivo; details: 0.05 mg/kg S.C., 24 rats
Description: A) Graphs show increase in PREM and PSV responses under a 5 second inter-trial interval (ITI) which establishes a baseline (Base) and a 10 second ITI across 24 animals across two doses of psilocybin (0.05 mg/kg and 0.1 mg/kg). Standard deviation is indicated by error bars; asterisks (*) indicate significance vs. vehicle (P=0.05) using T-test. B) Graphs show effects of psilocybin on PREM and PSV in low performer and high performer subgroups. Standard error of the mean is indicated by error bars; asterisks (*) indicate significance vs. vehicle (P<0.01) using T-test. High performers are defined as rats with the highest tertile of premature responses in the baseline test; low performers are rats with the bottom tertile of premature responses in the baseline test.
as §1, with “levels. […]” for “levels.”

[4] = Psilocybin plasma pharmacokinetics after s.c. psilocybin; assay type: in vivo; details: rats
Description: Psilocybin doses of 0.05, 0.1, 1, 10 mg/kg were used to evaluate psilocybin and psilocin PK in rats.
Details of the plasma concentration studies are shown in Tables 1-8 (psilocybin) and 9-16 (psilocin). Values in italics are below the lower level of quantitation (BLQ, <1 ng/mL) but were included in calculations. Values in bold and underlined are considered to be outliers and were omitted from calculations. Measured dosing solution concentrations were 0.0460, 0.0967, 0.948 and 9.65 mg/mL for 0.05, 0.1, 1 and 10 […].

5-HT2A receptor, sequence (P14842 whole entry): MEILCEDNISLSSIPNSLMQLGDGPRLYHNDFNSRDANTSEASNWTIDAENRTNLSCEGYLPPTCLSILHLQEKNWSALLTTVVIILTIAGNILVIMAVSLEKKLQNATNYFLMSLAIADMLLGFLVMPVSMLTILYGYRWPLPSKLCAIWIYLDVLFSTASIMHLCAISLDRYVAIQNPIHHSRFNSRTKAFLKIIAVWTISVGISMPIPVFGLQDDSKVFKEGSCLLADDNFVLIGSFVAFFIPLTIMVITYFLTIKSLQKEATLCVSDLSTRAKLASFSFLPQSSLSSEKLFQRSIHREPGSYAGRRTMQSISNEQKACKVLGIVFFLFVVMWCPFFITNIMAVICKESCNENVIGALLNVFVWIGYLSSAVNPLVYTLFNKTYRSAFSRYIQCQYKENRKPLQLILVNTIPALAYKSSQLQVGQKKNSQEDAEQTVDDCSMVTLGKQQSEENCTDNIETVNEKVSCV

SMILES: CN(C)CCc1c[nH]c2cccc(OP(=O)(O)O)c12 [psilocybin, 4-phosphoryloxy-N,N-dimethyltryptamine]
- signs of behavioral syndrome (WDS, BMC) (5-HT2A receptor; 0.3 mg/kg I.P and higher): significant signs of behavior syndrome
- signs of behavioral syndrome (WDS, BMC) (5-HT2A receptor; 0.03-0.1 mg/kg S.C.): no signs of behavioral syndrome
- distance travelled (rats; high doses): slightly decreased distanced travelled
- increase in distance travelled (rats; low doses): 0.3-0.4 fold
- PR food responding (lever presses, break point) (Long Evans rats [1]; 0.05 mg/kg S.C., low responder subgroup (12 rats)): an increase in food responding in low responder subgroup; also recorded: Significant improvements
- PR food responding (Long Evans rats [1]; 0.1 mg/kg S.C., low responder subgroup (12 rats)): did not produce an increase in food responding
- number of lever presses or break points (rewards earned) (Long Evans rats [1]; 0.05, 0.1 and 0.2 mg/kg S.C., entire study population of 36 rats): None of these doses were observed to cause obvious changes in the number of lever presses or break points
- PR response (lever presses) (Long Evans rats [1]; 0.05-0.2 mg/kg S.C., high responder subgroup (12 rats)): no effect on response in high responder subgroup
- detrimental effects on performance (motivation, motor control, attention, response speed) (Long Evans rats [1]; PR 0.05-0.2 mg/kg and 5CSRTT 0.05-0.1 mg/kg S.C.): no detrimental effects of psilocybin were noted on performance
- pro-cognitive effect, % hit (Long Evans rats [2]; 0.05 mg/kg S.C., 24 rats, 75 s SD, 5 S ITI, 100 trials, vs. vehicle): increased (p=0.05, t-test) pro-cognitive effect
- procognitive effect, % correct (Long Evans rats [2]; 0.05 mg/kg S.C., 24 rats, standard conditions): slight non-significant increase in procognitive effect
- response speed (Long Evans rats [2]; 0.05 mg/kg, low attentive cohort, vs. vehicle): increased response speed in the low attentive cohort compared with vehicle; also recorded: Significant improvements
- effect on accuracy (% correct and % hit) (Long Evans rats [2]; 0.05 and 0.1 mg/kg, low attentive subgroup (N=8), vs. vehicle): strongly evident in the low attentive subgroup compared with vehicle; also recorded: Significant improvements
- PREM and PSV responses (Long Evans rats [3]): an increase (p=0.05, t-test) increase in PREM and PSV responses
- AUC0-tlast, psilocybin, Mean ([4]; 0.05 mg/kg s.c.): 10.7 ng·h/mL
- Cmax, psilocybin, Mean ([4]; 0.05 mg/kg s.c.): 18.9 ng/mL
- Cmax/Dose, psilocybin, Mean ([4]; 0.05 mg/kg s.c.): 377 kg·ng/mL/mg
- tmax, psilocybin, Mean ([4]; 0.05 mg/kg s.c.): 36 min
- AUC0-tlast, psilocybin, Mean ([4]; 0.1 mg/kg s.c.): 11.4 ng·h/mL
- Cmax, psilocybin, Mean ([4]; 0.1 mg/kg s.c.): 31.4 ng/mL
- Cmax/Dose, psilocybin, Mean ([4]; 0.1 mg/kg s.c.): 314 kg·ng/mL/mg
- tmax, psilocybin, Mean ([4]; 0.1 mg/kg s.c.): 19.3 min
- AUC0-inf, psilocybin, Mean ([4]; 1.0 mg/kg s.c.): 47.9 ng·h/mL
- AUC0-inf/Dose, psilocybin, Mean ([4]; 1.0 mg/kg s.c.): 47.9 kg·ng·h/mL/mg
- AUC0-tlast, psilocybin, Mean ([4]; 1.0 mg/kg s.c.): 53.1 ng·h/mL
- Apparent t1/2, psilocybin, Mean ([4]; 1.0 mg/kg s.c.): 26.7 min
- Cmax, psilocybin, Mean ([4]; 1.0 mg/kg s.c.): 78.3 ng/mL
- Cmax/Dose, psilocybin, Mean ([4]; 1.0 mg/kg s.c.): 78.3 kg·ng/mL/mg
- MRT0-inf, psilocybin, Mean ([4]; 1.0 mg/kg s.c.): 44.8 min
- tmax, psilocybin, Mean ([4]; 1.0 mg/kg s.c.): 21.4 min
- AUC0-inf, psilocybin, Mean ([4]; 10 mg/kg s.c.): 2156 ng·h/mL
- AUC0-inf/Dose, psilocybin, Mean ([4]; 10 mg/kg s.c.): 216 kg·ng·h/mL/mg
- AUC0-tlast, psilocybin, Mean ([4]; 10 mg/kg s.c.): 1707 ng·h/mL
- Apparent t1/2, psilocybin, Mean ([4]; 10 mg/kg s.c.): 34 min
- Cmax, psilocybin, Mean ([4]; 10 mg/kg s.c.): 3595 ng/mL
- Cmax/Dose, psilocybin, Mean ([4]; 10 mg/kg s.c.): 359 kg·ng/mL/mg
- MRT0-inf, psilocybin, Mean ([4]; 10 mg/kg s.c.): 43 min
- tmax, psilocybin, Mean ([4]; 10 mg/kg s.c.): 30 min

— patent US12691130B2, “Compositions and methods for improving cognitive function” (Diamond Therapeutics Inc., priority 2019, dated 2026)
